Where no end group is shown, it is not given here.
How the values were obtained:
Escherichia coli 042 = assay: Biofilm formation, crystal violet assay (microtiter plate); assay type: cell-based; settings: FIG. 13
Protocol: (§1) Biofilm Formation and Measurement Procedures by Crystal Violet Assay: (1) incubate bacteria in agar plate; (2) single colony was transferred to fresh medium and incubated for overnight; (3) cultures were diluted 1:50 into fresh medium and (4) was dispensed into 96 well plate and incubated for overnight; (5) detection of bacteria growth ability, the OD at 600 nm was determined by the SpectraMax M5 Microplate Reader (6) washed by 1× PBS; (7) stained with crystal violet; (8) detection of biofilm, the OD at 570 nm was determined by the SpectraMax M5 Microplate Reader.
(§2) SMR(mut)-CPP (tat) peptide was used as a negative control.
(§3) Bacterial strains evaluated for biofilm formation included (1) the Gram-negative Vibrio cholerae C7258 strain (A. J. Silva et al., J. Bact., 190 (22):7335-7345 (November 2008); J. C. Ayala et al., Genomics data 5, pp. 147-150, (2015)); (2) the Gram-negative Escherichia coli 042 strain (Taxonomy ID: 216592, R. R. Chaudhuri et al, PLOS One, 5(1):e8801 (Jan. 20, 2010), and (3) the Gram-positive Staphylococcus aureus SCO1 strain (ATCC 12228, S. Sarkar et al., PLos One, 10(2):e0117613 (2015). The Vibrio cholerae, Escherichia coli and Staphylococcus aureus strains and plasmids are listed in the references cited in Table 2.
(§4) The Vibrio cholerae, Escherichia coli and Staphylococcus aureus strains were treated with SMRwt-CPP and SMRmut-CPP peptides and screened for inhibition of their biofilm-forming capacity using microtiter plate (MtP) methods (FIGS. 12-14 (crystal violet assays)) and confocal microscopy (FIGS. 15-16 (intensity count on confocal images).

Vibrio cholerae C7258 = assay: as above; assay type: cell-based; settings: FIG. 12
Protocol: as §1, §2, §3, §4

[1] = system: Staphylococcus aureus SCO1; assay: as above; assay type: cell-based; settings: FIG. 14
Protocol: as §1, §2, §3, §4

[2] = system: Staphylococcus aureus SCO1; assay: Biofilm formation, SYTO9 confocal microscopy, ImageJ; assay type: cell-based; settings: 24 h static, 18, 36, 72 nM, FIG. 15
Protocol: (§5) Strain SCO1 was grown in LB medium at 37° C. to stationary phase. The cultures were diluted 100 fords in fresh medium and biofilm allowed to develop under static conditions for 24 h in Mat Tek glass bottom culture plates. Biofilm formation was stained with SYTO9 and observed by Leico confocal microscopy and three-dimensional (3D) views of S. aureus and measured using the ImageJ. (A) Confocal images, (B) 3D images, and (C) bar graphs showing the inhibit effect of biofilm formation. Error bars represent the mean±SD of two independent experiments. Asterisks (*) indicate significant differences (p≤0.05) relative to negative control *p<0.01 (18 nM), **p<0.001 (36 nM, 72 nM) in SMR-CPP peptide treatment. Each value represents the mean of three independent experiments. Error bars denote the standard deviation (STDEV).
as §4

V. cholerae C7258 = assay: as above; assay type: cell-based, Vibrio cholerae; settings: 24 h static, 18, 36, 72 nM, FIG. 16
Protocol: as §5, with “V. cholerae C7258” for “SCO1”, “30°” for “37°”, “V. cholerae” for “S. aureus”, “vs 18” for “(18 nM), **p<0.001 (36”, “nM, 36 nM and” for “nM,”, “nM SMRwt-CPP” for “nM) in SMR-CPP”
as §4

Jurkat = assay type: cell-based; settings: Jurkat cultures, 12 days
Protocol: Jurkat cultures seeded at low density were grown in the presence of the SMRwt or the SMRmut peptide. A small but consistent aliquot was taken from each culture daily over a period of 12 days. The cells in the aliquot were counted and the cells/ml in the culture calculated to determine culture growth. The data are shown with time on the x-axis and cell number on the y-axis.
Neither peptide cause cell death (data not shown). Using immunoprecipitation with the SMRwt peptide as bait to screen for cellular factors interacting with the SMR domain, a cellular protein Mortalin was co-immunoprecipitated with the SMRwt peptide (FIG. 3). Mortalin, also known as Glucose-regulated protein 75 (GRP75) and Peptide-binding protein 74, is a 679 amino acid long, uninducible member of the heat shock protein 70 family. It has a high degree of identity with other members of the Hsp70 family, including Escherichia coli DnaK.

Row | Sequence | inhibition of biofilm formation (Escherichia coli 042) | inhibition of biofilm formation (Vibrio cholerae C7258) | inhibition of biofilm formation [1] | inhibition of biofilm formation [2] | inhibition of biofilm formation (V. cholerae C7258) | effect on eukaryotic cell growth (Jurkat)
1 | AGFPVAAAGFPVGRKKRRQRRRPPQ [SMRmut-CPP, reference compound] | no significant effect | no significant effect | no significant effect |  |  | 
2 | VGFPVAAVGFPVGRKKRRQRRRPPQ [SMRwt-CPP] | dose-response inhibition of biofilm formation | dose-response inhibition of biofilm formation | dose-response inhibition of biofilm formation | dose-response inhibition of biofilm formation | dose-response inhibition of biofilm formation | 
3 | VGFPVAAVGFPVDYKDDDDK [SMRwt] |  |  |  |  |  | no effect on eukaryotic cell growth
4 | AGFPVAAAGFPVDYKDDDDK [SMRmut, reference compound] |  |  |  |  |  | no effect on eukaryotic cell growth
